Assay results published in article PMC6201879, “N-substituted phenylbenzamides of the niclosamide chemotype attenuate obesity related changes in high fat diet fed mice” (PLoS ONE, 2018).
Where two headings read alike, the source gives them in different places.

What was measured:
[1] = tested on: carbonic anhydrase-III (CAIII); assay: Western blot of carbonic anhydrase III in liver of HFD-fed mice; details: HFD fed-DIO mice; 10mg/kg for 12 days; vs sham
[2] = tested on: Salmonella typhimurium (TA98, TA100, TA1535 and TA1537) and Escherichia coli (WP2 uvrA (pKM101)); assay: Ames assay, overall outcome and cytotoxicity across strains; details: for cytotoxicity in the Ames assay: relative to the negative control, presence and absence of S9 mix
[3] = tested on: HEK293 cells stably transduced with the human OCT3 transporter; assay: Cellular oxygen consumption rate (OCR), MitoXpress Xtra; format: cell-based; details: HEK293 cells expressing human OCT3; for change in respiration / oxygen consumption rate (OCR): compared to DMSO control, 2 hours
Protocol: Oxygen consumption rate experiments were performed by ZenBio, Inc (RTP, NC). HEK293 cells stably transduced with the human OCT3 transporter were plated in black-walled microclear plates (Greiner-BioOne) at 60,000 cells per well in growth medium. Cells were incubated overnight to allow attachment before growth medium was removed and replaced with 150μL of assay medium containing compound dilutions. Four concentrations of each compound were prepared and transferred to the empty wells. Control wells contained assay medium only or assay medium containing […] (FCCP) at 1μM. Ten μL of MitoXpress Xtra reagent was added to each test well and 100μL of pre-warmed mineral oil was overlaid in each well to create a seal. The plates were immediately read on a FLUOstar Omega (BMG) using dual read Time Resolved Fluorescence (TR-F) for 2 hours, with measurements taken every 2 minutes using 340nm and 650nm as excitation and emission wavelengths respectively. For lifetime analysis, two measurements per well were taken: 1) delay of 30μs, with a window of 30μs; and 2) delay of 70μs with a window of 30μs. Background TRF values were subtracted from all readings. A ratiometric analysis was performed to determine changes in the Lifetime fluorescence signal: Lifetime (μs)[T] = (D2-D1)/ln(W1/W2), where D is delay; W is fluorescence window value at each time point. Lifetime slopes were calculated using each Lifetime measurement over time. Data are presented as mean ± standard error (SE). The differences between the control (DMSO) and compound treated wells were analyzed using the Student’s t-test. A value of p≤0.05 was considered statistically significant. […]

p-AMPK Thr-172 = assay: Western blot of p-AMPK Thr-172 in liver of HFD-fed mice; details: HFD fed-DIO mice; 10mg/kg for 12 days; vs sham
[4] = tested on: fatty acid synthase (FAS); assay: Western blot of fatty acid synthase in liver of HFD-fed mice; details: HFD fed-DIO mice; 10mg/kg for 12 days; vs sham
[5] = Body weight changes in HFD-fed mice; format: in vivo, mouse; details: 10mg/kg I.P daily for 12 days
Protocol: We next measured body weight changes in HFD-fed animals prior to treatment with niclosamide or phenylbenzamide derivatives and after 12 days, prior to sacrifice. During this time, all animals (including sham) lost some weight.
20-week old animals were treated IP with 500199 at 10 or 25mg/kg by IP over a time-course of 9 days. At day 0, 3, 6 and 9 animals were weighed and tissue samples were collected for standard histological scoring of hepatic steatosis and automated quantitative histomorphometric scoring.

[6] = tested on: Escherichia coli WP2 uvrA (pKM101); assay: Ames assay, strain WP2 uvrA (pKM101); details: for Mean Revertant Colony Counts WP2 uvrA (pKM101) SP9+: with S9; for Mean Revertant Colony Counts WP2 uvrA (pKM101) S9-: without S9
[7] = tested on: Salmonella typhimurium TA1535; details: for Mean Revertant Colony Counts TA-1535 SP9+: with S9; for Mean Revertant Colony Counts TA-1535 S9-: without S9
[8] = tested on: Phosphorylated AMPK (Thr-172); assay: High-throughput phosphorylated AMPK (Thr-172) TR-FRET assay in HepG2 cells; format: cell-based, human; details: HepG2 TR-FRET dose response between 0.625 and 10 μM, 4 hours; also Western blot
Protocol: Phosphorylated AMPK (Thr-172) TR-FRET Assay Kit was purchased from CisBio (Bedford MA). HepG2 [HB-8065] cells were trypsinized, harvested and counted using Countess II FL automated cell counter (Thermo Fisher Scientific). Cells were then seeded in Poly-D-Lysine coated 96-well black optical plates at a concentration of 10,000 cells per well in 50μL growth medium. After 24-hours, the media was removed and replaced with 50μL of fresh growth media containing compounds. Five concentrations of each compound were prepared, ranging from 10 to 0.625 μM and applied to columns 2–11 of the cell plate. Control wells contained DMSO (column 1-minimum response control) or 500199 (column 12-maximum response control). The final DMSO concentration was 0.45%. Cells were cultured for 4 hours before cells were lysed in 50μL of lysis buffer for 30 minutes at room temperature according to assays protocol. Following lysis, 16μL of lysate was transferred to white 384 well small volume assay plate and 4μL of antibody dyes were added per assay protocol.
Following overnight incubation, quantitation was performed on a PHERAstar (BMG), using the HTRF protocol with an excitation wavelength of 337nm and emission wavelengths of 665nm and 620nm. The ratio between emission spectra (665/620) was assessed for each well individually and averaged for triplicate samples. Data are presented as mean ratio ± SE. The differences between the control (DMSO) and the compound treated wells were analyzed using two-way ANOVA and Dunnett’s post hoc test. A value of p<0.05 was considered to be significant.
Fig 5 Validation of AMPK pathway activation by phenylbenzamide derivatives in HepG2 cells. A) Cells were seeded at 10,000 cells per well 24 hours prior to treating cells with indicated concentration of compound or DMSO (CTL) for 4 hours. 16μL of cell lysate was incubated with HTRF phospho-AMPK detection reagents and fluorescence emission read at 665nm and 620nm using a PHERAstar platereader. The mean and standard deviation of the HTRF Ratio from three replicate wells is shown. The unstimulated (DMSO) and positive controls lysates are shown in green and red respectively.

[9] = any concentration tested, vs negative control

With `CC(C)(C)c1ccc(O)c(C(=O)Nc2ccc(C(=O)O)cc2Cl)c1` [Compound 500200, 4-[(5-tert-butyl-2-hydroxybenzene)amido]-3-chlorobenzoic acid] the “CAIII protein levels in liver” value [1] was “reduced”, the “Ames assay outcome (mutagenicity)” value [2] was “negative” and the “cytotoxicity in the Ames assay” value [2] was “cytotoxicity was exhibited at the highest concentrations in both strains”. The “change in respiration / oxygen consumption rate (OCR)” value [3] was “no change in respiration”, the “phosphorylation of AMPK at Thr-172 in liver” value (p-AMPK Thr-172) was “stimulated phosphorylation of AMPK at Thr-172” and the “FAS protein levels in liver” value [4] was “reduced”.

With `CC(C)(C)c1ccc(O)c(C(=O)Nc2ccc(C(=O)O)cc2C(F)(F)F)c1` [Compound 500873, 4-[(5-tert-butyl-2-hydroxy)amido]-3-(trifluoromethyl)benzoic acid] the “body weight change vs sham” value [5] was “lost weight but this loss failed to reach significance” and the “change in respiration / oxygen consumption rate (OCR)” value [3] was “no change in respiration”.

With `CC(C)(C)c1ccc(O)c(C(=O)Nc2cc(C(=O)O)ccc2Cl)c1` [Compound 600494, 3-{[2-Hydroxy-5-(tert-butyl)benzene]amido}-4chloro-benzoic acid] the “change in respiration / oxygen consumption rate (OCR)” value [3] was “no change in respiration”.

In the case of `CC(C)(C)c1cc(C(=O)Nc2ccc(C(=O)O)cc2Cl)c(O)c(C(C)(C)C)c1` [Compound 600453, 3-Chloro-4-[(3,5-di-tert-butyl-2-hydroxybenzene)amido]benzoic acid], the “CAIII protein levels in liver” value [1] is reported as “reduced”, the “body weight change vs sham” value [5] is reported as “lost significantly more weight” and the “Mean Revertant Colony Counts WP2 uvrA (pKM101) SP9+” value ([6]; 1.5 ug/Well) is reported as 36.0. For the same molecule, the “Mean Revertant Colony Counts WP2 uvrA (pKM101) S9-” value ([6]; 1.5 ug/Well) was 31.7, the “Mean Revertant Colony Counts WP2 uvrA (pKM101) SP9+” value ([6]; 4 ug/Well) was 35.0 and the “Mean Revertant Colony Counts WP2 uvrA (pKM101) S9-” value ([6]; 4 ug/Well) was 20.7. The “Mean Revertant Colony Counts WP2 uvrA (pKM101) SP9+” value ([6]; 10 ug/Well) was 31.7, the “Mean Revertant Colony Counts WP2 uvrA (pKM101) S9-” value ([6]; 10 ug/Well) was 29.3 and the “Mean Revertant Colony Counts WP2 uvrA (pKM101) SP9+” value ([6]; 25 ug/Well) was 33.3. For the same molecule, the “Mean Revertant Colony Counts WP2 uvrA (pKM101) S9-” value ([6]; 25 ug/Well) was 15.7, the “Mean Revertant Colony Counts WP2 uvrA (pKM101) SP9+” value ([6]; 64 ug/Well) was 28.0 and the “Mean Revertant Colony Counts WP2 uvrA (pKM101) S9-” value ([6]; 64 ug/Well) was 23.0. The “Mean Revertant Colony Counts WP2 uvrA (pKM101) SP9+” value ([6]; 160 ug/Well) was 23.0, the “Mean Revertant Colony Counts WP2 uvrA (pKM101) S9-” value ([6]; 160 ug/Well) was 20.0 and the “Mean Revertant Colony Counts WP2 uvrA (pKM101) SP9+” value ([6]; 400 ug/Well) was 15.3. For the same molecule, the “Mean Revertant Colony Counts WP2 uvrA (pKM101) S9-” value ([6]; 400 ug/Well) was 9.0, the “Mean Revertant Colony Counts WP2 uvrA (pKM101) SP9+” value ([6]; 1000 ug/Well) was 9.0 and the “Mean Revertant Colony Counts WP2 uvrA (pKM101) S9-” value ([6]; 1000 ug/Well) was 3.7. For the same molecule, the “fold increase in the mean number of revertant colonies, WP2 uvrA (pKM101)” value [6, 9] was less than 2 fold, the “Ames assay outcome (mutagenicity)” value [2] was “negative” and the “cytotoxicity in the Ames assay” value [2] was “no cytotoxicity was exhibited at any concentration”. The “concentration dependence of OCR change” value ([3]; four concentrations) was “significantly decreased OCR at all concentrations above 300nM”, the “phosphorylation of AMPK at Thr-172 in liver” value (p-AMPK Thr-172) was “stimulated phosphorylation of AMPK at Thr-172” and the “Mean Revertant Colony Counts TA-1535 SP9+” value ([7]; 1.5 ug/Well) was 2.7. The “Mean Revertant Colony Counts TA-1535 S9-” value ([7]; 1.5 ug/Well) was 4.0, the “Mean Revertant Colony Counts TA-1535 SP9+” value ([7]; 4 ug/Well) was 3.7 and the “Mean Revertant Colony Counts TA-1535 S9-” value ([7]; 4 ug/Well) was 3.7. The “Mean Revertant Colony Counts TA-1535 SP9+” value ([7]; 10 ug/Well) was 2.7, the “Mean Revertant Colony Counts TA-1535 S9-” value ([7]; 10 ug/Well) was 1.7 and the “Mean Revertant Colony Counts TA-1535 SP9+” value ([7]; 25 ug/Well) was 2.3. The “Mean Revertant Colony Counts TA-1535 S9-” value ([7]; 25 ug/Well) was 2.7, the “Mean Revertant Colony Counts TA-1535 SP9+” value ([7]; 64 ug/Well) was 3.0 and the “Mean Revertant Colony Counts TA-1535 S9-” value ([7]; 64 ug/Well) was 1.7. The “Mean Revertant Colony Counts TA-1535 SP9+” value ([7]; 160 ug/Well) was 3.3, the “Mean Revertant Colony Counts TA-1535 S9-” value ([7]; 160 ug/Well) was 4.0 and the “Mean Revertant Colony Counts TA-1535 SP9+” value ([7]; 400 ug/Well) was 2.0. The “Mean Revertant Colony Counts TA-1535 S9-” value ([7]; 400 ug/Well) was 2.7, the “Mean Revertant Colony Counts TA-1535 SP9+” value ([7]; 1000 ug/Well) was 2.0 and the “Mean Revertant Colony Counts TA-1535 S9-” value ([7]; 1000 ug/Well) was 2.7. The “fold increase in the mean number of revertant colonies, TA1535” value [7, 9] was less than 3 fold, the “phosphorylation of AMPK (Figs 5 and 4D)” value [8] was “stimulated phosphorylation of AMPK” and the “FAS protein levels in liver” value [4] was “reduced”.
